Laboratory results taken from patent publication US7772241B2, “Variolin derivatives and their use as antitumor agents” (Pharma Mar S.A., priority 2001, dated 2010).

Legend:
[1] = tested on: LoVo-Dox; assay: Inhibition of cells growth by colorimetric (SRB) assay, LoVo-Dox; conditions: for GI50 / CC50: Homo sapiens, 48 h; for GI50: read-out: GI50 LOVO-DOX, SRB assay, 48 hours exposure; for CC50: read-out: LC50 LOVO-DOX, SRB assay, 48 hours exposure; for TGI LOVO-DOX: SRB assay, 48 hours exposure
Method in brief: (§1)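 Human tumour cells seeded at 5×10^3/well in RPMI 1640 10% FBS, attached 18 h, then exposed 48 h to samples at 10 to 10^−8 μg/ml in DMSO/EtOH/PBS (0.5:0.5:99). Growth read by SRB staining after TCA fixation, OD 490 nm, triplicate wells; GI, TGI and LC derived.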

[2] = tested on: HMEC1; assay: Inhibition of cells growth by colorimetric (SRB) assay, HMEC1; conditions: for GI50: Homo sapiens, HMEC-1, 48 h, read-out: GI50 H-MEC-1, SRB assay, 48 hours exposure; for TGI H-MEC-1: SRB assay, 48 hours exposure, in M (unit assumed)
[3] = as above; conditions: human, HMEC1 cells, LC50 H-MEC-1, SRB assay, 48 hours exposure
[4] = tested on: DU-145; assay: Inhibition of cells growth by colorimetric (SRB) assay, DU-145; conditions: for GI50 / CC50: Homo sapiens, DU-145, 48 h; for GI50: read-out: GI50 DU-145, SRB assay, 48 hours exposure; for CC50: read-out: LC50 DU-145, SRB assay, 48 hours exposure; for TGI DU-145: SRB assay, 48 hours exposure
Method in brief: as §1

[5] = tested on: LNCaP; assay: Inhibition of cells growth by colorimetric (SRB) assay, LNCaP; conditions: for GI50 / CC50: Homo sapiens, LNCaP, 48 h; for GI50: read-out: GI50 LN-caP, SRB assay, 48 hours exposure; for CC50: read-out: LC50 LN-caP, SRB assay, 48 hours exposure; for TGI LN-caP: SRB assay, 48 hours exposure
Method in brief: as §1

[6] = tested on: A-549; assay: Inhibition of cells growth by colorimetric (SRB) assay, A-549; conditions: for GI50 / CC50: Homo sapiens, A549, 48 h; for GI50: read-out: GI50 A-549, SRB assay, 48 hours exposure; for CC50: read-out: LC50 A-549, SRB assay, 48 hours exposure; for TGI A-549: SRB assay, 48 hours exposure
Method in brief: as §1

[7] = tested on: SK-OV-3; assay: Inhibition of cells growth by colorimetric (SRB) assay, SK-OV-3; conditions: for GI50 / CC50: Homo sapiens, SK-OV-3, 48 h; for GI50: read-out: GI50 SKOV-3, SRB assay, 48 hours exposure; for CC50: read-out: LC50 SKOV-3, SRB assay, 48 hours exposure; for TGI SKOV-3: SRB assay, 48 hours exposure
Method in brief: as §1

[8] = tested on: SK-MEL-28; assay: Inhibition of cells growth by colorimetric (SRB) assay, SK-MEL-28; conditions: for GI50 / CC50: Homo sapiens, SK-MEL-28, 48 h; for GI50: read-out: GI50 MEL-28, SRB assay, 48 hours exposure; for CC50: read-out: LC50 MEL-28, SRB assay, 48 hours exposure; for TGI MEL-28: SRB assay, 48 hours exposure
Method in brief: as §1

[9] = tested on: LoVo; assay: Inhibition of cells growth by colorimetric (SRB) assay, LoVo; conditions: for GI50 / CC50: Homo sapiens, LoVo, 48 h; for GI50: read-out: GI50 LOVO, SRB assay, 48 hours exposure; for CC50: read-out: LC50 LOVO, SRB assay, 48 hours exposure; for TGI LOVO: SRB assay, 48 hours exposure
Method in brief: as §1

[10] = tested on: IGROV-1; assay: Inhibition of cells growth by colorimetric (SRB) assay, IGROV-1; conditions: for GI50 / CC50: Homo sapiens, IGROV-1, 48 h; for GI50: read-out: GI50 IGROV, SRB assay, 48 hours exposure; for CC50: read-out: LC50 IGROV, SRB assay, 48 hours exposure; for TGI IGROV: SRB assay, 48 hours exposure
Method in brief: as §1

[11] = tested on: K-562; assay: Inhibition of cells growth by colorimetric (SRB) assay, K-562; conditions: for GI50 / CC50: Homo sapiens, K562, 48 h; for GI50: read-out: GI50 K-562, SRB assay, 48 hours exposure; for CC50: read-out: LC50 K-562, SRB assay, 48 hours exposure; for TGI K-562: SRB assay, 48 hours exposure
Method in brief: as §1

[12] = tested on: HT-29; assay: Inhibition of cells growth by colorimetric (SRB) assay, HT-29; conditions: for GI50 / CC50: Homo sapiens, HT-29, 48 h; for GI50: read-out: GI50 HT-29, SRB assay, 48 hours exposure; for CC50: read-out: LC50 HT-29, SRB assay, 48 hours exposure; for TGI HT-29: SRB assay, 48 hours exposure
Method in brief: as §1

[13] = tested on: PANC-1; assay: Inhibition of cells growth by colorimetric (SRB) assay, PANC-1; conditions: for GI50 / CC50: Homo sapiens, PANC-1, 48 h; for GI50: read-out: GI50 PANC-1, SRB assay, 48 hours exposure; for CC50: read-out: LC50 PANC-1, SRB assay, 48 hours exposure; for TGI PANC-1: SRB assay, 48 hours exposure
Method in brief: as §1

[14] = tested on: IGROV-ET; assay: Inhibition of cells growth by colorimetric (SRB) assay, IGROV-ET; conditions: for GI50 / CC50: Homo sapiens, 48 h; for GI50: read-out: GI50 IGROV-ET, SRB assay, 48 hours exposure; for CC50: read-out: LC50 IGROV-ET, SRB assay, 48 hours exposure; for TGI IGROV-ET: SRB assay, 48 hours exposure
Method in brief: as §1

[15] = tested on: SK-BR-3; assay: Inhibition of cells growth by colorimetric (SRB) assay, SK-BR-3; conditions: for GI50 / CC50: Homo sapiens, SK-BR-3, 48 h; for GI50: read-out: GI50 SK-BR-3, SRB assay, 48 hours exposure; for CC50: read-out: LC50 SK-BR-3, SRB assay, 48 hours exposure; for TGI SK-BR-3: SRB assay, 48 hours exposure
Method in brief: as §1

With `COc1ccc2nc3c(cc2c1)c(-c1ccnc(SC)n1)c1ccnc(N)n13` [Compound 18b] the GI50 [1] was ≥ 25.7 µM, the CC50 [1] was ≥ 25.7 µM and the “TGI LOVO-DOX” value [1] was 2.57E−05. The GI50 [2] was 12.2 µM, the “TGI H-MEC-1” value [2] was 1.69E−05 and the CC50 at 48 h [3] was 23.3 µM. The GI50 [4] was ≥ 25700 nM, the CC50 [4] was ≥ 25.7 µM and the “TGI DU-145” value [4] was 2.57E−05. For the same molecule, the GI50 [5] was 16.6 µM, the CC50 [5] was ≥ 25.7 µM and the “TGI LN-caP” value [5] was 2.57E−05. The GI50 [6] was ≥ 25.7 µM, the CC50 [6] was ≥ 25.7 µM and the “TGI A-549” value [6] was 2.57E−05. The GI50 [7] was ≥ 25.7 µM, the CC50 [7] was ≥ 25.7 µM and the “TGI SKOV-3” value [7] was 2.57E−05. The GI50 [8] was ≥ 25.7 µM, the CC50 [8] was ≥ 25.7 µM and the “TGI MEL-28” value [8] was 2.57E−05. The GI50 [9] was ≥ 25.7 µM, the CC50 [9] was ≥ 25.7 µM and the “TGI LOVO” value [9] was 2.57E−05. The GI50 [10] was 20.8 µM, the CC50 [10] was ≥ 25.7 µM and the “TGI IGROV” value [10] was 2.57E−05. For the same molecule, the GI50 [11] was ≥ 25.7 µM, the CC50 [11] was ≥ 25.7 µM and the “TGI K-562” value [11] was 2.57E−05. The GI50 [12] was ≥ 25.7 µM, the CC50 [12] was ≥ 25.7 µM and the “TGI HT-29” value [12] was 2.57E−05. The GI50 [13] was 10.3 µM, the CC50 [13] was ≥ 25.7 µM and the “TGI PANC-1” value [13] was 2.57E−05. For the same molecule, the GI50 [14] was ≥ 25.7 µM, the CC50 [14] was ≥ 25.7 µM and the “TGI IGROV-ET” value [14] was 2.57E−05. The GI50 [15] was ≥ 25.7 µM, the CC50 [15] was ≥ 25.7 µM and the “TGI SK-BR-3” value [15] was 2.57E−05.
For `C[S+]([O-])c1nccc(-c2c3c(Cl)ccnc3n3c(N)nccc23)n1` (stereo not drawn) [Compound 110], the GI50 [1] was 2.04 µM, the CC50 [1] was ≥ 27.9 µM and the “TGI LOVO-DOX” value [1] was 1.21E−05. For the same molecule, the GI50 [2] was 1.7 µM, the “TGI H-MEC-1” value [2] was 1.08E−05 and the CC50 at 48 h [3] was ≥ 27.9 µM. The GI50 [4] was 2030 nM, the CC50 [4] was ≥ 27.9 µM and the “TGI DU-145” value [4] was 8.97E−06. The GI50 [5] was 1.45 µM, the CC50 [5] was 16.7 µM and the “TGI LN-caP” value [5] was 4.71E−06. For the same molecule, the GI50 [6] was 11 µM, the CC50 [6] was ≥ 27.9 µM and the “TGI A-549” value [6] was 2.79E−05. For the same molecule, the GI50 [7] was 11.9 µM, the CC50 [7] was ≥ 27.9 µM and the “TGI SKOV-3” value [7] was 2.79E−05. For the same molecule, the GI50 [8] was 5.55 µM, the CC50 [8] was ≥ 27.9 µM and the “TGI MEL-28” value [8] was 2.79E−05. The GI50 [9] was 1.38 µM, the CC50 [9] was ≥ 27.9 µM and the “TGI LOVO” value [9] was 6.21E−06. For the same molecule, the GI50 [10] was 14.3 µM, the CC50 [10] was ≥ 27.9 µM and the “TGI IGROV” value [10] was 2.79E−05. For the same molecule, the GI50 [11] was 9.92 µM, the CC50 [11] was ≥ 27.9 µM and the “TGI K-562” value [11] was 2.79E−05. The GI50 [12] was 4.15 µM, the CC50 [12] was ≥ 27.9 µM and the “TGI HT-29” value [12] was 2.79E−05. The GI50 [13] was 14.5 µM, the CC50 [13] was ≥ 27.9 µM and the “TGI PANC-1” value [13] was 2.79E−05. For the same molecule, the GI50 [14] was 10.9 µM, the CC50 [14] was ≥ 27.9 µM and the “TGI IGROV-ET” value [14] was 2.79E−05. The GI50 [15] was 0.92 µM, the CC50 [15] was 11.6 µM and the “TGI SK-BR-3” value [15] was 1.98E−06.
With `Nc1nccc(-c2c3cccnc3n3ccccc23)n1` [Compound 56] the GI50 [1] was 5.93 µM, the CC50 [1] was 38.3 µM and the “TGI LOVO-DOX” value [1] was 1.66E−05. For the same molecule, the GI50 [2] was 3.9 µM, the “TGI H-MEC-1” value [2] was 9.34E−06 and the CC50 at 48 h [3] was 22.3 µM. For the same molecule, the GI50 [4] was 2120 nM, the CC50 [4] was 25.6 µM and the “TGI DU-145” value [4] was 8.88E−06. For the same molecule, the GI50 [5] was 5.93 µM, the CC50 [5] was 20.6 µM and the “TGI LN-caP” value [5] was 1.11E−05. For the same molecule, the GI50 [6] was 6.28 µM, the CC50 [6] was 34.9 µM and the “TGI A-549” value [6] was 1.48E−05. For the same molecule, the GI50 [7] was 7.12 µM, the CC50 [7] was 35.5 µM and the “TGI SKOV-3” value [7] was 1.59E−05. The GI50 [8] was 7.73 µM, the CC50 [8] was 38.3 µM and the “TGI MEL-28” value [8] was 1.73E−05. The GI50 [9] was 6.74 µM, the CC50 [9] was 38.3 µM and the “TGI LOVO” value [9] was 1.63E−05. For the same molecule, the GI50 [10] was 8.69 µM, the CC50 [10] was 38.3 µM and the “TGI IGROV” value [10] was 1.91E−05. The GI50 [11] was 8.23 µM, the CC50 [11] was 38.3 µM and the “TGI K-562” value [11] was 1.83E−05. The GI50 [12] was 12.5 µM, the CC50 [12] was 38.3 µM and the “TGI HT-29” value [12] was 3.46E−05. The GI50 [13] was 8.96 µM, the CC50 [13] was 38.3 µM and the “TGI PANC-1” value [13] was 1.94E−05. For the same molecule, the GI50 [14] was 11.5 µM, the CC50 [14] was 38.3 µM and the “TGI IGROV-ET” value [14] was 2.35E−05. For the same molecule, the GI50 [15] was 5.32 µM, the CC50 [15] was 38.3 µM and the “TGI SK-BR-3” value [15] was 1.88E−05.
